{"source": "patent US20240117431A1", "about": "“STEM-CELL BASED BIOMARKER DISCOVERY” (THE REGENTS OF THE UNIVERSITY OF CALIFORNIA, priority 2020, published 2024)", "molecular_target": "T1, Methionine-tRNA Synthetase L272G (MethL272G) iPSCs (Homo sapiens, UniProt P56192, L272G)", "T1 construct": "Using CRISPR gene editing, this locus was successfully modified in a human iPSC line; endogenous in cells; host or cells: human iPSC line ADRC 76, CRISPR-edited", "T1 sequence (P56192 1-900 L272G)": "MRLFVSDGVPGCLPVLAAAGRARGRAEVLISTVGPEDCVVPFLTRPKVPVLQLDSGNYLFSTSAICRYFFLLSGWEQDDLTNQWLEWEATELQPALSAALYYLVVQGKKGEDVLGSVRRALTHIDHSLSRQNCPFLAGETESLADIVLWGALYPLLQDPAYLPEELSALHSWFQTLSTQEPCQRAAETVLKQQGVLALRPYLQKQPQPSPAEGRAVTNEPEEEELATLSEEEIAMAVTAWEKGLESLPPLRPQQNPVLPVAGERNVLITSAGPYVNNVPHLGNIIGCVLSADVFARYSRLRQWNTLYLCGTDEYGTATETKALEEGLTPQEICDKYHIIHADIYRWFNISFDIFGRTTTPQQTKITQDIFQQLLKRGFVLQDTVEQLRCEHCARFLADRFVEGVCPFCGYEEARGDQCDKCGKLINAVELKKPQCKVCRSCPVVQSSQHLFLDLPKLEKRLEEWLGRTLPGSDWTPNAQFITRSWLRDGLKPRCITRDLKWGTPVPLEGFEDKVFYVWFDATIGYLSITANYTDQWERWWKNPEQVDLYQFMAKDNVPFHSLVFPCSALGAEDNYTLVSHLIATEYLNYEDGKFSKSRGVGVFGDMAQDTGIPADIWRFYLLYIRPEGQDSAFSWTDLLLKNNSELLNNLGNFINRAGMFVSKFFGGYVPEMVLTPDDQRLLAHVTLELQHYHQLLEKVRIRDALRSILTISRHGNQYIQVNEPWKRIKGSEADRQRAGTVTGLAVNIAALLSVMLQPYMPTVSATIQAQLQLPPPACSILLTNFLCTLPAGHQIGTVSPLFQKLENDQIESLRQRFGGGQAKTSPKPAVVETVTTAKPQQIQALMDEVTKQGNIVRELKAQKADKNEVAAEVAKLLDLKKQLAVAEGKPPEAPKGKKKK", "test": "ANL incorporation into nascent protein of iPSCs (BONCAT western blot, TAMRA confocal microscopy)", "type": "cell-based", "settings": "1.5 mM ANL, 14 hrs", "description": "Validation by Western Blot: Wild-type (WT) and MethL272G iPSCs were cultured in 6-well plate with and without 1.5 mM ANL (Tocris 6585) for 14 hrs in DMEM/F12 Silac media without Methionine (AthenaES 0433) supplemented with TeSR™-E8™ 25× Supplement. (Note: Methionine-absent media is described as Metia below.) Cells were dissociated and collected using TrypLE Express (Gibco 12605028) for 3 min at 37° C., isolated, and lysed in Ripa buffer with Halt Protease Inhibitor Cocktail (ThermoFisher Scientific 78429) and Halt Phosphatase Inhibitor Cocktail (ThermoFisher Scientific 78426). 200 μg of protein was labeled for analysis using Click-iT Protein Analysis TAMRA alkyne Detection Kit (Invitrogen C33370) that tags the azide of ANL incorporated protein with a TAMRA-alkyne tag via the following reaction:\nThe resulting protein pellets were boiled in 120 μl of Loading Buffer and boiled for 15 minutes at 70° C., which were then loaded into a 4-15% Criterion TGX 12-well Gel (Bio-Rad 5671083) for electrophoresis, then transferred to Trans-Blot® Turbo™ Midi Nitrocellulose Membrane (Bio-Rad 1704159) for analysis. Protein was probed with TAMRA Monoclonal Antibody (5G5) (Invitrogen MA1-041) followed by anti-mouse secondary for imaging. […]"}
{"smiles": "[N-]=[N+]=NCCCC[C@H](N)C(=O)O", "note": "[ANL, L-azidonorleucine]", "values": [{"measurement": "labeling of cellular protein (TAMRA confocal microscopy)", "setting": "control ADRC76 versus MethL272G iPSCs, FIG. 2A", "value": "labeling of cellular protein only in mutated MethL272G iPSCs"}, {"measurement": "BONCAT labeling of ANL-incorporated protein (western blot)", "setting": "methionine-absent media, FIG. 1B", "value": "successful BONCAT labeling"}]}
